From patent US20090264401A1, “SUBSTITUTED PYRIMIDIN-5-CARBOXAMIDES 281” (AstraZeneca AB, priority 2008, published 2009)

Target: T1, human 11βHSD1 enzyme (Homo sapiens, UniProt P28845)
T1 construct: baculovirus expressed N terminal 6-His tagged full length human 11βHSD1 enzyme; 6-His (N); made in house
Assay: 11βHSD1 cortisone to cortisol conversion, competitive HTRF assay
Assay type: biochemical
Settings: human 11-βHSD; test concentration of 30 μM of compound
Procedure: The evaluation of compounds described herein was carried out using a baculovirus expressed N terminal 6-His tagged full length human 11βHSD1 enzyme(*1). The enzyme was purified from a detergent solubilised cell lysate, using a copper chelate column. Inhibitors of 11βHSD1 reduce the conversion of cortisone to cortisol, which is identified by an increase in signal, in the above assay.
Compounds to be tested were dissolved in dimethyl sulphoxide (DMSO) to 10 mM and diluted further in assay buffer containing 1% DMSO to 10 fold the final assay concentration. Diluted compounds were then plated into black 384 well plates (Matrix, Hudson N.H., USA).
Fluorescence at 665 nm and 620 nm was measured and the 665 nm:620 nm ratio calculated using an Envision plate reader.

T1 sequence (P28845 whole entry): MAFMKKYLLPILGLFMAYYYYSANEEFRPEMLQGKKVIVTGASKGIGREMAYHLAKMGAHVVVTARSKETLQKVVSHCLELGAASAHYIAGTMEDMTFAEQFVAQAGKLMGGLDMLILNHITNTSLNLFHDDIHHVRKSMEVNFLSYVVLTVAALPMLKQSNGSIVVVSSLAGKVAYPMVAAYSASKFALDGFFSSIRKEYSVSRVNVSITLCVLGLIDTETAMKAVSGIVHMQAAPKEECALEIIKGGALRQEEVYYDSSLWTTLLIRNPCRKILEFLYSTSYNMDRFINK

Row | Structure (SMILES) | inhibition at 30 µM [%]
1 | O=C(N[C@H]1C2CC3CC1C[C@@](O)(C3)C2)c1cnc(NC2CC2)nc1C1CCC1 [Example 88, 4-cyclobutyl-2-(cyclopropylamino)-N-[(2r,5s)-5-hydroxyadamantan-2-yl]pyrimidine-5-carboxamide] | 94.9
2 | O=C(N[C@H]1C2CC3CC1C[C@@](O)(C3)C2)c1cnc(N2CC(F)(F)C2)nc1C1CCC1 [Example 89, 4-cyclobutyl-2-(3,3-difluoroazetidin-1-yl)-N-[(2r,5s)-5-hydroxyadamantan-2-yl]pyrimidine-5-carboxamide] | 95.5
3 | O=C(N[C@H]1C2CC3CC1C[C@@](O)(C3)C2)c1cnc(N2CCOCC2CO)nc1C1CCC1 (stereo partly drawn) [Example 90, 4-cyclobutyl-N-[(2r,5s)-5-hydroxyadamantan-2-yl]-2-[3-(hydroxymethyl)morpholin-4-yl]pyrimidine-5-carboxamide] | 100
4 | CNc1ncc(C(=O)N[C@H]2C3CC4CC2C[C@@](O)(C4)C3)c(C2CCC2)n1 [Example 91, 4-cyclobutyl-N-[(2r,5s)-5-hydroxyadamantan-2-yl]-2-(methylamino)pyrimidine-5-carboxamide] | 95.7
5 | C[C@@H]1CN(c2ncc(C(=O)N[C@H]3C4CC5CC3C[C@@](O)(C5)C4)c(C3CCC3)n2)C[C@H](C)O1 [Example 92, 4-cyclobutyl-2-[(2R,6S)-2,6-dimethylmorpholin-4-yl]-N-[(2r,5s)-5-hydroxyadamantan-2-yl]pyrimidine-5-carboxamide] | 97.1
6 | O=C(N[C@H]1C2CC3CC1C[C@@](O)(C3)C2)c1cnc(N2CCOC(CO)C2)nc1C1CCC1 (stereo partly drawn) [Example 93, 4-cyclobutyl-N-[(2r,5s)-5-hydroxyadamantan-2-yl]-2-[2-(hydroxymethyl)morpholin-4-yl]pyrimidine-5-carboxamide] | 93.1
7 | CC(C)Nc1ncc(C(=O)N[C@H]2C3CC4CC2C[C@@](O)(C4)C3)c(C2CCC2)n1 [Example 94, 4-cyclobutyl-N-[(2r,5s)-5-hydroxyadamantan-2-yl]-2-(isopropylamino)pyrimidine-5-carboxamide] | 103
8 | CC(C)(CO)Nc1ncc(C(=O)N[C@H]2C3CC4CC2C[C@@](O)(C4)C3)c(C2CCC2)n1 [Example 95, 4-cyclobutyl-N-[(2r,5s)-5-hydroxyadamantan-2-yl]-2-[(2-hydroxy-1,1-dimethylethyl)amino]pyrimidine-5-carboxamide] | 97.3
9 | O=C(N[C@H]1C2CC3CC1C[C@@](O)(C3)C2)c1cnc(NC2CCOCC2)nc1C1CCC1 [Example 96, 4-cyclobutyl-N-[(2r,5s)-5-hydroxyadamantan-2-yl]-2-(tetrahydro-2H-pyran-4-ylamino)pyrimidine-5-carboxamide] | 97.4
10 | O=C(N[C@H]1C2CC3CC1C[C@@](O)(C3)C2)c1cnc(NC2CCC2)nc1C1CCC1 [Example 98, N-[(2r,5s)-5-hydroxyadamantan-2-yl] 4-cyclobutyl-2-(cyclobutylamino)pyrimidine-5-carboxamide] | 97.8
11 | C[C@@H]1CN(c2ncc(C(=O)N[C@H]3C4CC5CC3C[C@@](O)(C5)C4)c(C3CCC3)n2)C[C@H](C)N1 [Example 99, 4-cyclobutyl-2-[(3R,5S)-3,5-dimethylpiperazin-1-yl]-N-[(2r,5s)-5-hydroxyadamantan-2-yl]pyrimidine-5-carboxamide] | 93.3
12 | C[C@@H]1CN(c2ncc(C(=O)N[C@H]3C4CC5CC3C[C@@](O)(C5)C4)c(C3CCC3)n2)C[C@@H](C)O1 [Example 101, 4-cyclobutyl-2-[(2R,6R)-2,6-dimethylmorpholin-4-yl]-N-[(2r,5s)-5-hydroxyadamantan-2-yl]pyrimidine-5-carboxamide] | 102
13 | O=C(N[C@H]1C2CC3CC1C[C@@](O)(C3)C2)c1cnc(NC2CCCC2)nc1C1CCC1 [Example 102, 4-cyclobutyl-2-(cyclopentylamino)-N-[(2r,5s)-5-hydroxyadamantan-2-yl]pyrimidine-5-carboxamide] | 93.8
14 | O=C(NC1C2CC3CC1CC(O)(C3)C2)c1cnc(N2C[C@@H]3C[C@H]2CO3)nc1C1CCC1 (stereo partly drawn) [Example 103, 4-cyclobutyl-N-[(2r,5s)-5-hydroxyadamantan-2-yl]-2-[(1S,4S)-2-oxa-5-azabicyclo[2.2.1]hept-5-yl]pyrimidine-5-carboxamide] | 95.7
15 | O=C(N[C@H]1C2CC3CC1C[C@@](O)(C3)C2)c1cnc(NC2COC2)nc1C1CCC1 [Example 104, 4-cyclobutyl-N-[(2r,5s)-5-hydroxyadamantan-2-yl]-2-(oxetan-3-ylamino)pyrimidine-5-carboxamide] | 99.3
16 | O=C(N[C@H]1C2CC3CC1C[C@@](O)(C3)C2)c1cnc(OC2CCCC2)nc1C1CCC1 [Example 106, 4-cyclobutyl-2-(cyclopentyloxy)-N-[(2r,5s)-5-hydroxyadamantan-2-yl]pyrimidine-5-carboxamide] | 101
17 | CC(C)Oc1ncc(C(=O)N[C@H]2C3CC4CC2C[C@@](O)(C4)C3)c(C2CCC2)n1 [Example 107, 4-cyclobutyl-N-[(2r,5s)-5-hydroxyadamantan-2-yl]-2-isopropoxypyrimidine-5-carboxamide] | 97.3

The remaining lines, values ahead:

Row | inhibition at 30 µM [%] | Structure (SMILES)
18 | 96 | O=C(N[C@H]1C2CC3CC1C[C@@](O)(C3)C2)c1cnc(OC2CCC2)nc1C1CCC1 [Example 108, 4-cyclobutyl-2-(cyclobutyloxy)-N-[(2r,5s)-5-hydroxyadamantan-2-yl]pyrimidine-5-carboxamide]
19 | 90.3 | O=C(N[C@H]1C2CC3CC1C[C@@](O)(C3)C2)c1cnc(OC2COC2)nc1C1CCC1 [Example 109, 4-cyclobutyl-N-[(2r,5s)-5-hydroxyadamantan-2-yl]-2-(oxetan-3-yloxy)pyrimidine-5-carboxamide]
20 | 100 | CC(C)Oc1ncc(C(=O)N[C@H]2C3CC4CC2C[C@@](O)(C4)C3)c(C2CCCC2)n1 [Example 110, 4-cyclopentyl-N-[(2r,5s)-5-hydroxyadamantan-2-yl]-2-propan-2-yloxypyrimidine-5-carboxamide]
21 | 108 | O=C(N[C@H]1C2CC3CC1C[C@@](O)(C3)C2)c1cnc(OC2CCC2)nc1C1CCCC1 [Example 111, 2-cyclobutyloxy-4-cyclopentyl-N-[(2r,5s)-5-hydroxyadamantan-2-yl]pyrimidine-5-carboxamide]
22 | 104 | O=C(N[C@H]1C2CC3CC1C[C@@](O)(C3)C2)c1cnc(OC2CCCC2)nc1C1CCCC1 [Example 112, 4-cyclopentyl-2-cyclopentyloxy-N-[(2r,Ss)-5-hydroxyadamantan-2-yl]pyrimidine-5-carboxamide]
23 | 98.4 | O=C(N[C@H]1C2CC3CC1C[C@@](O)(C3)C2)c1cnc(OC2COC2)nc1C1CCCC1 [Example 113, 4-cyclopentyl-N-[(2r,5s)-5-hydroxyadamantan-2-yl]-2-(oxetan-3-yloxy)pyrimidine-5-carboxamide]
24 | 106 | O=C(N[C@H]1C2CC3CC1C[C@@](O)(C3)C2)c1cnc(N2CCSCC2)nc1C1CCCC1 [Example 114, 4-Cyclopentyl-N-[(2s,5r)-5-hydroxyadamantan-2-yl]-2-thiomorpholin-4-ylpyrimidine-5-carboxamide]
25 | 93.4 | O=C(N[C@H]1C2CC3CC1C[C@@](O)(C3)C2)c1cnc(N2CC[S+]([O-])CC2)nc1C1CCCC1 [Example 115, 4-Cyclopentyl-N-[(2r,5 s)-5-hydroxyadamantan-2-yl]-2-(1-oxo-1,4-thiazinan-4-yl)pyrimidine-5-carboxamide]
26 | 98.1 | O=C(N[C@H]1C2CC3CC1C[C@@](O)(C3)C2)c1cnc(N2CCS(=O)(=O)CC2)nc1C1CCCC1 [Example 116, 4-Cyclopentyl-2-(1,1-dioxo-1,4-thiazinan-4-yl)-N-[(2r,5s)-5-hydroxyadamantan-2-yl]pyrimidine-5-carboxamide]
27 | 97.4 | COc1ncc(C(=O)N[C@H]2C3CC4CC2C[C@@](O)(C4)C3)c(C2CCCC2)n1 [Example 117, 4-cyclopentyl-N-[(2r,5s)-5-hydroxyadamantan-2-yl]-2-methoxypyrimidine-5-carboxamide]
28 | 93.7 | CNc1ncc(C(=O)N[C@H]2C3CC4CC2C[C@@](O)(C4)C3)c(C2CCCC2)n1 [Example 118, 4-cyclopentyl-N-[(2r,5s)-5-hydroxyadamantan-2-yl]-2-methylaminopyrimidine-5-carboxamide]
29 | 101 | O=C(N[C@H]1C2CC3CC1C[C@@](O)(C3)C2)c1cnc(N2C[C@@H]3C[C@H]2CO3)nc1C1CCCC1 [Example 120, 4-cyclopentyl-N-[(2r,5s)-5-hydroxyadamantan-2-yl]-2-[(1S,4S)-2-oxa-5-azabicyclo[2.2.1]heptan-5-yl]pyrimidine-5-carboxamide]
30 | 104 | CC(C)Nc1ncc(C(=O)N[C@H]2C3CC4CC2C[C@@](O)(C4)C3)c(C2CCCC2)n1 [Example 121, 4-cyclopentyl-N-[(2r,5s)-5-hydroxyadamantan-2-yl]-2-(propan-2-ylamino)pyrimidine-5-carboxamide]
31 | 97.5 | O=C(N[C@H]1C2CC3CC1C[C@@](O)(C3)C2)c1cnc(NC2CC2)nc1C1CCCC1 [Example 122, 4-cyclopentyl-2-(cyclopropylamino)-N-[(2r,5s)-5-hydroxyadamantan-2-yl]pyrimidine-5-carboxamide]
32 | 99.1 | C[C@H]1COCCN1c1ncc(C(=O)N[C@H]2C3CC4CC2C[C@@](O)(C4)C3)c(C2CCCC2)n1 [Example 123]
33 | 95 | COCCN1CCN(c2ncc(C(=O)N[C@H]3C4CC5CC3C[C@](O)(C5)C4)c(C3CCCC3)n2)CC1 [Example 125, 4-cyclopentyl-N-[(2r,5s)-5-hydroxyadamantan-2-yl]-2-[4-(2-methoxyethyl)piperazin-1-yl]pyrimidine-5-carboxamide]
